Reference: PubChem BioAssay (NCI)
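The compound was tested at five concentrations on cells cultured in 96-well plates, with a 48-hour exposure period. GI50 is the concentration that inhibits growth by half. TGI is the concentration that stops growth completely.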

Columns and labels:
Test in all cases: DTP human tumour cell line panel, 48 h
SNB-75 CNS = tested on: SNB-75 CNS
RPMI-8226 leukemia = tested on: RPMI-8226 leukemia
NCI/ADR-RES ovarian = tested on: NCI/ADR-RES ovarian
EKVX NSCLC = tested on: EKVX NSCLC
UO-31 renal = tested on: UO-31 renal
ACHN renal = tested on: ACHN renal
SF-539 CNS = tested on: SF-539 CNS
HT29 colon = tested on: HT29 colon
DU-145 prostate = tested on: DU-145 prostate
SK-MEL-28 melanoma = tested on: SK-MEL-28 melanoma
MALME-3M melanoma = tested on: MALME-3M melanoma
SW-620 colon = tested on: SW-620 colon
SK-OV-3 ovarian = tested on: SK-OV-3 ovarian
CCRF-CEM leukemia = tested on: CCRF-CEM leukemia
SF-268 CNS = tested on: SF-268 CNS
NCI-H460 lung = tested on: NCI-H460 lung
HOP-92 NSCLC = tested on: HOP-92 NSCLC
RXF 393 renal = tested on: RXF 393 renal
HS 578T breast = tested on: HS 578T breast
OVCAR-4 ovarian = tested on: OVCAR-4 ovarian
M14 melanoma = tested on: M14 melanoma
SN12C renal = tested on: SN12C renal
COLO 205 colon = tested on: COLO 205 colon
786-0 renal = tested on: 786-0 renal
TK-10 renal = tested on: TK-10 renal
UACC-257 melanoma = tested on: UACC-257 melanoma
KM12 colon = tested on: KM12 colon
A498 renal = tested on: A498 renal
MDA-MB-435 = tested on: MDA-MB-435
HCT-15 colon = tested on: HCT-15 colon
OVCAR-5 ovarian = tested on: OVCAR-5 ovarian
PC-3 prostate = tested on: PC-3 prostate
NCI-H23 lung = tested on: NCI-H23 lung
MOLT-4 leukemia = tested on: MOLT-4 leukemia
SK-MEL-2 melanoma = tested on: SK-MEL-2 melanoma
UACC-62 melanoma = tested on: UACC-62 melanoma

SMILES: NC(N)=Nc1ccc(Oc2ccc(Nc3ccc(Cl)c(C(F)(F)F)c3)cc2)cc1
- GI50 (SNB-75 CNS): 1260 nM
- TGI (SNB-75 CNS): 2610 nM
- GI50 (RPMI-8226 leukemia): 2460 nM
- TGI (RPMI-8226 leukemia): 6970 nM
- GI50 (NCI/ADR-RES ovarian): 10400 nM
- TGI (NCI/ADR-RES ovarian): 27700 nM
- GI50 (EKVX NSCLC): 1760 nM
- TGI (EKVX NSCLC): 3560 nM
- GI50 (UO-31 renal): 1840 nM
- TGI (UO-31 renal): 4510 nM
- GI50 (ACHN renal): 1800 nM
- TGI (ACHN renal): 3240 nM
- GI50 (SF-539 CNS): 1690 nM
- TGI (SF-539 CNS): 3190 nM
- GI50 (HT29 colon): 1600 nM
- TGI (HT29 colon): 3090 nM
- GI50 (DU-145 prostate): 1740 nM
- TGI (DU-145 prostate): 3160 nM
- GI50 (SK-MEL-28 melanoma): 1640 nM
- TGI (SK-MEL-28 melanoma): 3050 nM
- GI50 (MALME-3M melanoma): 1790 nM
- TGI (MALME-3M melanoma): 3990 nM
- GI50 (SW-620 colon): 1700 nM
- TGI (SW-620 colon): 3250 nM
- GI50 (SK-OV-3 ovarian): 2180 nM
- TGI (SK-OV-3 ovarian): 5070 nM
- GI50 (CCRF-CEM leukemia): 2210 nM
- TGI (CCRF-CEM leukemia): 6910 nM
- GI50 (SF-268 CNS): 1620 nM
- TGI (SF-268 CNS): 3390 nM
- GI50 (NCI-H460 lung): 1780 nM
- TGI (NCI-H460 lung): 3320 nM
- GI50 (HOP-92 NSCLC): 1380 nM
- TGI (HOP-92 NSCLC): 2800 nM
- GI50 (RXF 393 renal): 1580 nM
- TGI (RXF 393 renal): 3040 nM
- GI50 (HS 578T breast): 1900 nM
- TGI (HS 578T breast): 4640 nM
- GI50 (OVCAR-4 ovarian): 1730 nM
- TGI (OVCAR-4 ovarian): 3270 nM
- GI50 (M14 melanoma): 1650 nM
- TGI (M14 melanoma): 3220 nM
- GI50 (SN12C renal): 1660 nM
- TGI (SN12C renal): 3190 nM
- GI50 (COLO 205 colon): 1730 nM
- TGI (COLO 205 colon): 3480 nM
- GI50 (786-0 renal): 1740 nM
- TGI (786-0 renal): 3290 nM
- GI50 (TK-10 renal): 1820 nM
- TGI (TK-10 renal): 3420 nM
- GI50 (UACC-257 melanoma): 1640 nM
- TGI (UACC-257 melanoma): 3260 nM
- GI50 (KM12 colon): 1650 nM
- TGI (KM12 colon): 3110 nM
- GI50 (A498 renal): 1280 nM
- TGI (A498 renal): 2550 nM
- GI50 (MDA-MB-435): 1590 nM
- TGI (MDA-MB-435): 3020 nM
- GI50 (HCT-15 colon): 1940 nM
- TGI (HCT-15 colon): 4230 nM
- GI50 (OVCAR-5 ovarian): 1710 nM
- TGI (OVCAR-5 ovarian): 3150 nM
- GI50 (PC-3 prostate): 1510 nM
- TGI (PC-3 prostate): 3010 nM
- GI50 (NCI-H23 lung): 1640 nM
- TGI (NCI-H23 lung): 3150 nM
- GI50 (MOLT-4 leukemia): 1830 nM
- TGI (MOLT-4 leukemia): 4620 nM
- GI50 (SK-MEL-2 melanoma): 1760 nM
- TGI (SK-MEL-2 melanoma): 3200 nM
- GI50 (UACC-62 melanoma): 1700 nM
- TGI (UACC-62 melanoma): 3270 nM
